Reference: US12678451B2, “Cannabinoid and omega fatty acid compositions and methods of using” (GreenWay Herbal Products, LLC, priority 2019, dated 2026)

How the values were obtained:
[1] = tested on: cytokine levels in differentiated THP-1 cells treated with LPS; experiment: THP-1 human cellular LPS cytokine assay, four independent experiments, per cytokine; format: cell-based; settings: LPS 20 ng/mL
[2] = tested on: cytokines induced in mice by LPS; experiment: Mouse LPS cytokine model, Example 6A Study 3, 1:1 CBD:CBDA in MCT oil; format: in vivo; settings: 0.5 mg/kg
Experimental: (§1) A series of experiments using a mouse LPS cytokine animal model were performed. In the mouse LPS cytokine animal model, mice were injected with LPS, which induced the immune response shortly after the mice were injected with one of the potential anti-inflammatory compounds under evaluation (the “test compound”). The efficacy of the test compound was evaluated based on its ability to reduce expression levels of inflammatory cytokines that were elevated due to the immune response. The test compounds included a cannabinoid, an omega fatty acid, and a cannabinoid-omega fatty acid composition.
(§2) The mice were intraperitoneally injected with 0.1 mL of the test compound. One hour later, the mice were intraperitoneally injected with 0.1 mL of LPS in phosphate buffered saline (PBS). Four hours later, a heart puncture was performed and the blood was allowed to clot to generate serum. 0.1 mL of the serum was diluted 1:2 with PBS and stored at −80° C. The serum was then sent to a laboratory where a mouse cytokine array/chemokine array 31-plex (MD31) analysis was performed that analyzed the expression levels of the 32 cytokines/chemokines listed in Table 9, above.
(§3) For each considered test compound, the ability of the test compound to suppress each inflammatory cytokine was calculated by determining the percent suppression.
32 female C57BL/6 mice that weighed approximately 20 g each were allowed to acclimate for one week with unlimited access to food and water. On the day of the study, the mice were weighed and split into eight groups of four mice each so that the average weight of each group was as close as possible to each other.
The 1:1 CBD:CBDA test compounds were dosed at 5 mg/kg or 0.1 mg per 20 g mouse, 1.67 mg/kg or 0.033 mg per 20 g mouse, 0.5 mg/kg or 0.01 mg per 20 g mouse, 0.167 mg/kg or 0.0033 mg per 20 g mouse and 0.05 mg/kg or 0.001 mg per 20 g mouse. The test compounds were prepared as 1 mg/mL, 0.33 mg/mL, 0.1 mg/mL, 0.033 mg/mL and 0.01 mg/mL solutions in MCT oil for a 0.1 mL injection. […] The LPS was dosed at 0.1 mg/kg or 0.002 mg per 20 g mouse. The LPS was prepared as a 0.02 mg/mL solution in PBS for a 0.1 mL injection.

[3] = tested on: cytokines induced in mice by LPS; experiment: Mouse LPS cytokine model, Example 6C Study 3, omega fatty acids with or without 0.25 mg/kg 1:1 CBD:CBDA; format: in vivo
Experimental: as §1, §2, §3
In this study, the effects of combining 1:1 CBD:CBDA with anti-inflammatory omega unsaturated fatty acids using the mouse LPS cytokine animal model were examined.
40 female C57BL/6 mice that weighed approximately 20 g each were allowed to acclimate for one week with unlimited access to food and water. On the day of the study, the mice were weighed and split into ten groups of four mice each so that the average weight of each group was as close as possible to each other. […] (9) LPS plus 37.50 mg omega fatty acids (0.1 mL injection of 375.00 mg/mL omega fatty acids diluted in MCT oil, followed 1 hour later by a 0.1 mL injection of LPS in PBS); and (10) LPS plus 37.50 mg omega fatty acids/0.005 mg 1:1 CBD:CBDA (0.1 mL injection of 375.00 mg/mL omega fatty acids/0.05 mg/mL 1:1 CBD:CBDA diluted in MCT oil, followed 1 hour later by a 0.1 mL injection of LPS in PBS).
24 out of the 32 analyzed cytokines were induced two-fold by LPS. Because the purpose of this experiment was to evaluate the effectiveness of combining 1:1 CBD:CBDA and the anti-inflammatory omega fatty acids, only cytokines that could be suppressed by one of the anti-inflammatory agents used in this study were considered. 24 out of the 24 cytokines whose expression level was induced-two fold or greater by LPS met these criteria.

[4] = 0.01 mg dexamethasone in MCT oil

**Q.** What does the source list for C[C@@H]1C[C@H]2[C@@H]3CCC4=CC(=O)C=C[C@]4(C)[C@@]3(F)[C@@H](O)C[C@]2(C)[C@@]1(O)C(=O)CO [Dexamethasone, dexamethasone]?
**A.** EGF suppression ([1]; 2 µM): 0.74%; FGF-β suppression ([1]; 2 µM): −18.23%; Flt-3L suppression ([1]; 2 µM): 57.45%; IFNγ suppression ([1]; 2 µM): 56.19%; IL-1α suppression ([1]; 2 µM): 77.5%; IL-1β suppression ([1]; 2 µM): 67.84%; IL-4 suppression ([1]; 2 µM): 56.32%; IL-6 suppression ([1]; 2 µM): 90.56%; IL-7 suppression ([1]; 2 µM): 64.36%; IL-10 suppression ([1]; 2 µM): 74.07%; IL-12 p70 suppression ([1]; 2 µM): 1.37%; IL-15 suppression ([1]; 2 µM): 29.2%; IL-18 suppression ([1]; 2 µM): −15.38%; IP-10 suppression ([1]; 2 µM): 64.85%; MCP-1 suppression ([1]; 2 µM): 83.18%; MIP-1β suppression ([1]; 2 µM): 73.58%; TNFα suppression ([1]; 2 µM): 45.33%; TNFβ suppression ([1]; 2 µM): 72.69%; Average cytokine suppression [1]: 50.17%; AVERAGE SUPPRESSION [2]: 34.65%; Eotaxin suppression [2]: 55.51%; IFNγ suppression [2]: 14.14%; IL-1β suppression [2]: 61.12%; IL-2 suppression [2]: −15.63%; IL-6 suppression [2]: 78.65%; IL-7 suppression [2]: 12.53%; IL-9 suppression [2]: 5.23%; IL-10 suppression [2]: 46.83%; IL-12 p70 suppression [2]: −46.46%; IL-12β p40 suppression [2]: 29.69%; IL-13 suppression [2]: 21.00%; IL-17 suppression [2]: 53.81%; IP-10 suppression [2]: 38.48%; KC suppression [2]: 86.96%; LIF suppression [2]: 35.14%; MCP-1 suppression [2]: 69.72%; MIG suppression [2]: 37.08%; MIP-1α suppression [2]: 48.38%; MIP-1β suppression [2]: 32.24%; MIP-2 suppression [2]: 41.28%; RANTES suppression [2]: 32.46%; TNF-α suppression [2]: 53.09%; VEGF suppression [2]: 66.07%; Percent suppression of elevated cytokine levels, Eotaxin [3, 4]: 7.26%; Percent suppression of elevated cytokine levels, IFNγ [3, 4]: 44.52%; Percent suppression of elevated cytokine levels, IL-1β [3, 4]: 35.53%; Percent suppression of elevated cytokine levels, IL-2 [3, 4]: −9.46%; Percent suppression of elevated cytokine levels, IL-6 [3, 4]: 85.95%; Percent suppression of elevated cytokine levels, IL-7 [3, 4]: 96.66%; Percent suppression of elevated cytokine levels, IL-10 [3, 4]: 57.41%; Percent suppression of elevated cytokine levels, IL-12β p40 [3, 4]: 54.79%; Percent suppression of elevated cytokine levels, IL-12β p70 [3, 4]: −51.07%; Percent suppression of elevated cytokine levels, IL-13 [3, 4]: 11.39%; Percent suppression of elevated cytokine levels, IL-15 [3, 4]: −13.42%; Percent suppression of elevated cytokine levels, IL-17 [3, 4]: 63.75%; Percent suppression of elevated cytokine levels, IP-10 [3, 4]: 42.02%; Percent suppression of elevated cytokine levels, KC [3, 4]: 60.10%; Percent suppression of elevated cytokine levels, LIF [3, 4]: 47.18%; Percent suppression of elevated cytokine levels, MCP-1 [3, 4]: 57.29%; Percent suppression of elevated cytokine levels, MIG [3, 4]: −0.29%; Percent suppression of elevated cytokine levels, MIP-1α [3, 4]: 47.13%; Percent suppression of elevated cytokine levels, MIP-1β [3, 4]: 34.67%; Percent suppression of elevated cytokine levels, MIP-2 [3, 4]: 37.57%; Percent suppression of elevated cytokine levels, RANTES [3, 4]: 37.87%; Percent suppression of elevated cytokine levels, TNF-α [3, 4]: 51.43%; Percent suppression of elevated cytokine levels, VEGF [3, 4]: 75.98%; Percent suppression of elevated cytokine levels, AVERAGE SUPPRESSION ([3]; 0.01 mg dexamethasone in MCT oil, average of 24 cytokines): 37.59%; decrease in the cytokine expression levels (average) ([3]; 0.01 mg per mouse): 37.59%
